This note sets out measurements from publication PMC12040169 (PLOS Biology, 2025).

A short description of the data set: in vitro. To be noted: human, hela cells, % viability.

Consider `O=C(C1CCC1)N1CC(n2nc(-c3ccccc3)ccc2=O)C1` [CBK284624], for which the viability at 28.5 h, 10 µM amounted to 79.2%.

Consider `O=C(c1cccs1)N1CCC(c2nnc3n2CCCCC3)CC1` [CBK284626], for which the viability at 28.5 h, 10 µM worked out at 95.7%.

Turning to `O=C(c1cccc(F)c1)N1CCC(c2nnc3n2CCCCC3)CC1` [CBK284627], the viability at 28.5 h, 10 µM amounted to 103%.

Regarding `O=C(CC1CCCC1)N1CCC(c2nnc3n2CCCCC3)CC1` [CBK284630], the viability at 28.5 h, 10 µM turned out to be 84.6%.

In the case of `O=C(CC1CCCC1)N1CCCC(c2nnc(-c3cccs3)o2)C1` (stereo not shown) [CBK284631], the viability at 28.5 h, 10 µM is 94.3%.

For `O=C(Cc1ccccc1F)NCc1nnc(-c2cccs2)o1` [CBK284632], the viability at 28.5 h, 10 µM came out at 82%.

On to `O=C(NCc1nnc(-c2cccs2)o1)C1(c2ccccc2)CC1` [CBK284635], for which the viability at 28.5 h, 10 µM was 96.2%.

Take `O=C(Cc1ccc(F)cc1)NCc1nnc(-c2cccs2)o1` [CBK284640]: the viability at 28.5 h, 10 µM worked out at 82.6%.

With `Cc1ccc(-c2nnc(CNC(=O)c3cccc(F)c3F)o2)s1` [CBK284641], the viability at 28.5 h, 10 µM came to 91.1%.

Consider `Cc1ccc(-c2nnc(CNC(=O)c3cccc(Cl)c3)o2)s1` [CBK284646], for which the viability at 28.5 h, 10 µM came to 79.1%.

Consider `Cc1ccc(-c2nnc(CNC(=O)c3ccc(F)c(F)c3)o2)s1` [CBK284647], for which the viability at 28.5 h, 10 µM amounted to 90.5%.

Consider `COCc1ccc(CN2CCC3(CCc4ccccc4C(=O)N3)C2)o1` (stereo not shown) [CBK284651], for which the viability at 28.5 h, 10 µM turned out to be 94.3%.

`CC(C)C(=O)N1CCC(c2nc3ccc(F)cc3cc2N)CC1` [CBK284656]: the viability at 28.5 h, 10 µM amounted to 81.5%.

Regarding `OC1(Cn2cnc3ccccc32)CCN(Cc2ccc(F)cc2)CC1` [CBK284661], the viability at 28.5 h, 10 µM is 85.7%.

In the case of `Cc1cnn(CCC(=O)NC(Cc2ccsc2)c2nccs2)c1` (stereo not shown) [CBK284664], the viability at 28.5 h, 10 µM stood at 88.4%.

In the case of `O=C(CCc1cccnc1)NC(Cc1ccsc1)c1nccs1` (stereo not shown) [CBK284665], the viability at 28.5 h, 10 µM turned out to be 99.5%.

As to `Cn1ccc(C2CCCCCN2S(=O)(=O)c2ccc(F)cc2)n1` (stereo not shown) [CBK284671], the viability at 28.5 h, 10 µM was 98.8%.

Take `CCS(=O)(=O)N1CCCCCC1c1nn(C)cc1Cl` (stereo not shown) [CBK284672]: the viability at 28.5 h, 10 µM turned out to be 83.6%.

In the case of `Cn1nc(C(F)(F)F)cc1C1CCCCCN1S(C)(=O)=O` (stereo not shown) [CBK284673], the viability at 28.5 h, 10 µM was 101%.

For the compound `O=C(Cn1c(C2CCOCC2)cc2cccnc21)N1CCCCCC1` [CBK284674], the viability at 28.5 h, 10 µM turned out to be 105%.

In the case of `CC1CCCCN1C(=O)Cn1c(C2CCOCC2)cc2cccnc21` (stereo not shown) [CBK284675], the viability at 28.5 h, 10 µM was determined as 97.7%.

`CC(=O)NC(c1nccs1)C1CCN(C(=O)C(C)(C)C)CC1` (stereo not shown) [CBK284677]: the viability at 28.5 h, 10 µM turned out to be 88.9%.

Consider `CC(C)(C)C(=O)NC(c1nccs1)C1CCN(C(=O)C2CC2)CC1` (stereo not shown) [CBK284678], for which the viability at 28.5 h, 10 µM was 88.8%.

`C1=C(CNC(Cc2cccs2)c2nccs2)COCC1` (stereo not shown) [CBK284682]: the viability at 28.5 h, 10 µM amounted to 103%.

Consider `Cc1c(CN2CCCC(c3cc4cccnc4[nH]3)C2)cnn1C` (stereo not shown) [CBK284683], for which the viability at 28.5 h, 10 µM was found to be 99.7%.

With `Cc1cc(C)n(CC(=O)NC(Cc2cccs2)c2nccs2)n1` (stereo not shown) [CBK284686], the viability at 28.5 h, 10 µM amounted to 85.8%.

Consider `c1cnc2[nH]c(C3CCOCC3)c(CN3CCSCC3)c2c1` [CBK284688], for which the viability at 28.5 h, 10 µM was found to be 89.5%.

In the case of `CC(C)n1nccc1NC(=O)CCn1c(C(F)F)cc2cccnc21` [CBK284690], the viability at 28.5 h, 10 µM was 99.3%.

As to `Cc1csc(C(Cc2cccs2)NC(=O)CN2CCCC2=O)n1` (stereo not shown) [CBK284691], the viability at 28.5 h, 10 µM is 109%.

Take `Cc1cc(C)n(CCNCc2cc(-c3ccc(F)cc3)c[nH]c2=O)n1` [CBK284694]: the viability at 28.5 h, 10 µM was 89.2%.

Regarding `O=c1[nH]cc(-c2ccc(F)cc2)cc1CNCc1ccccc1F` [CBK284696], the viability at 28.5 h, 10 µM came to 86.1%.

For `Cc1cc(C(F)(F)F)c2c(NCc3ccoc3)n[nH]c2n1` [CBK284698], the viability at 28.5 h, 10 µM turned out to be 82.9%.

For the compound `COc1ccc2[nH]cc([C@@H]3CCC[C@H](NC(=O)C4CCCO4)C3)c2c1` (stereo partly shown) [CBK284699], the viability at 28.5 h, 10 µM amounted to 105%.

With `C[C@]12CN(CCc3ccccc3)C[C@H]1NC(=O)c1ccccc1C2=O` [CBK284704], the viability at 28.5 h, 10 µM was 90.3%.

On to `Cc1ccc(CN2C[C@H]3C(=O)Nc4ccccc4C(=O)N[C@@]3(C)C2)o1` [CBK284706], for which the viability at 28.5 h, 10 µM came out at 95.7%.

With `CCOC(=O)Cn1ccc2ccnc(-c3cccc(OC)c3)c21` [CBK284707], the viability at 28.5 h, 10 µM worked out at 89.6%.

As for `O=C(c1ccccc1F)N1CCCC(c2cc3ncccc3cn2)C1` (stereo not shown) [CBK284710], the viability at 28.5 h, 10 µM was determined as 83.3%.

With `CCCNC(=O)Cn1nc(-c2cc3c(s2)CCC3)oc1=O` [CBK284713], the viability at 28.5 h, 10 µM came out at 95.2%.

With `CC(C)(C)NC(=O)Cn1nc(-c2cc3c(s2)CCC3)oc1=O` [CBK284714], the viability at 28.5 h, 10 µM worked out at 101%.

Regarding `C[C@H]1CN2C[C@H](O)CC2CN1Cc1cccc2ccccc12` (stereo partly shown) [CBK284717], the viability at 28.5 h, 10 µM was 92.5%.

Regarding `CCOC(=O)C(NC(=O)CCn1ccc2ccncc21)C(C)C` (stereo not shown) [CBK284719], the viability at 28.5 h, 10 µM was determined as 91.6%.

On to `CCCC(=O)N1CCC([C@@H]2C[C@H](C(F)F)n3nc(C)cc3N2)CC1` [CBK284724], for which the viability at 28.5 h, 10 µM was determined as 97.6%.

`Cc1cc2n(n1)[C@@H](C(F)F)C[C@@H](C1CCN(C(=O)C(C)C)CC1)N2` [CBK284725]: the viability at 28.5 h, 10 µM was 88%.

`COCC(C)NCc1cc(-c2ccc(Cl)cc2)c[nH]c1=O` (stereo not shown) [CBK284726]: the viability at 28.5 h, 10 µM was 79%.

In the case of `Cc1ccn(CCNCc2cc(-c3ccc(Cl)cc3)c[nH]c2=O)n1` [CBK284727], the viability at 28.5 h, 10 µM turned out to be 88.4%.

As to `C[C@]12CN(Cc3ccc(F)cc3)C[C@H]1NC(=O)c1ccccc1C2=O` [CBK284728], the viability at 28.5 h, 10 µM stood at 87.8%.

Take `O=C(NC1CCN(C(=O)Cn2ccc3ccncc32)CC1)C1CC1` [CBK284731]: the viability at 28.5 h, 10 µM was determined as 98.9%.

For `O=C(Cn1ccc2ccnc(-c3cccs3)c21)NCc1ccncc1` [CBK284734], the viability at 28.5 h, 10 µM stood at 86.5%.

Consider `O=C(Cn1ccc2ccnc(-c3cccs3)c21)N1CCC(O)CC1` [CBK284736], for which the viability at 28.5 h, 10 µM came to 93.1%.

Consider `CC(C)(C)NC(=O)Cn1ccc2ccnc(-c3cccs3)c21` [CBK284737], for which the viability at 28.5 h, 10 µM was 94.1%.

For `C[C@]12CN(CC3CC=CCC3)C[C@H]1C(=O)Nc1ccccc1C(=O)N2` (stereo partly shown) [CBK284738], the viability at 28.5 h, 10 µM came out at 96.6%.

As to `O=C1N[C@]2(Cc3ccccc31)CN(Cc1ccccc1)C[C@H]2CO` [CBK284743], the viability at 28.5 h, 10 µM is 92.1%.

With `CC(C)C(=O)N1CCC(c2nc3ccccn3c2NC(C)(C)C)CC1` [CBK284745], the viability at 28.5 h, 10 µM came to 95%.

As for `CC(CC(=O)NC1(C#Cc2nccs2)CCCCC1)n1ccnc1` (stereo not shown) [CBK284746], the viability at 28.5 h, 10 µM came to 99.5%.

`O=C(c1cc(C2CC2)n[nH]1)N1CCn2cc(C(F)(F)F)nc2C1` [CBK284749]: the viability at 28.5 h, 10 µM turned out to be 81.6%.

On to `NC1CCN(C(=O)Cn2ccc3ccnc(-c4cccs4)c32)CC1` [CBK284750], for which the viability at 28.5 h, 10 µM worked out at 85.7%.

As for `Cc1ccc(CN2CCC(O)(Cn3ccc4ncccc43)CC2)o1` [CBK284751], the viability at 28.5 h, 10 µM is 97.7%.

Turning to `CCC(C)NC(=O)Cn1c(C2CCOCC2)cc2cc(C)cnc21` (stereo not shown) [CBK284756], the viability at 28.5 h, 10 µM was 94.3%.

For the compound `CC(C)(C)Nc1c(C2CCCN(C(=O)C3CC3)C2)nc2ccccn12` (stereo not shown) [CBK284759], the viability at 28.5 h, 10 µM amounted to 105%.

As for `Cc1[nH]c2ccccc2c1[C@H]1CC[C@@H](NC(=O)c2ccnn2C)C1` [CBK284761], the viability at 28.5 h, 10 µM turned out to be 99.8%.

On to `O=C1NC2(CCN(C(=O)c3ccco3)CC2)Nc2ccccc21` [CBK284762], for which the viability at 28.5 h, 10 µM was determined as 104%.

For the compound `O=C(NC(Cc1ccccc1)C(O)c1nccs1)C1CC=CCC1` (stereo not shown) [CBK284763], the viability at 28.5 h, 10 µM is 95.3%.

In the case of `Cc1cnc2[nH]c(C(F)(F)F)c(CN3CCN(C)CC3)c2c1` [CBK284765], the viability at 28.5 h, 10 µM amounted to 92.3%.

As for `Cc1cc(C)n(CCNCc2cc(-c3ccccc3)c[nH]c2=O)n1` [CBK284770], the viability at 28.5 h, 10 µM turned out to be 101%.

`O=c1[nH]cc(-c2ccccc2)cc1CNc1cccc2ncccc12` [CBK284771]: the viability at 28.5 h, 10 µM is 77.1%.

Consider `COCC(=O)NC(Cc1ccsc1)c1nc(C)c(C)s1` (stereo not shown) [CBK284773], for which the viability at 28.5 h, 10 µM was 100%.

For `Cc1nc(C(Cc2ccsc2)NC(=O)C2CCC(=O)N2)sc1C` (stereo not shown) [CBK284780], the viability at 28.5 h, 10 µM was 101%.

Take `Cc1nc(C(Cc2ccsc2)NC(=O)Cn2cccn2)sc1C` (stereo not shown) [CBK284781]: the viability at 28.5 h, 10 µM was 93.9%.

On to `OC1(Cn2ccc3ncccc32)CCN(CC2CC=CCC2)CC1` (stereo not shown) [CBK284782], for which the viability at 28.5 h, 10 µM worked out at 93.6%.

Take `C=CCNC(=O)C1(Cc2ccccc2-c2ccncc2)CCOCC1` [CBK284784]: the viability at 28.5 h, 10 µM worked out at 102%.

In the case of `O=C(NC1CC1)C1(Cc2ccccc2-c2ccncc2)CCOCC1` [CBK284785], the viability at 28.5 h, 10 µM came out at 94.1%.

On to `O=c1c2ccccc2nc2n1CCN(Cc1ccccc1)CC2` [CBK284790], for which the viability at 28.5 h, 10 µM is 90.2%.

For the compound `O=C1N[C@]2(CCc3ccccc31)CN(Cc1ccsc1)C[C@H]2CO` [CBK284793], the viability at 28.5 h, 10 µM came out at 90.7%.

Take `O=C1N[C@]2(CCc3ccccc31)CN(CC1CC=CCC1)C[C@H]2CO` (stereo partly shown) [CBK284794]: the viability at 28.5 h, 10 µM was 96%.

On to `O=C1N[C@]2(CCc3ccccc31)CN(Cc1ccccc1)C[C@H]2CO` [CBK284795], for which the viability at 28.5 h, 10 µM stood at 106%.

Take `COc1ccc(C(C)NC(=O)CCn2ccc3ccncc32)cc1` (stereo not shown) [CBK284798]: the viability at 28.5 h, 10 µM amounted to 92.4%.

In the case of `O=C1NC2(CCCN(C(=O)c3ccco3)C2)Oc2ccccc21` (stereo not shown) [CBK284800], the viability at 28.5 h, 10 µM turned out to be 99.8%.

`Cc1cccnc1C(Cc1ccsc1)NC(=O)Cn1ccnc1` (stereo not shown) [CBK284802]: the viability at 28.5 h, 10 µM is 94.1%.

Consider `O=C1NC2(CCCN(C(=O)c3ccco3)C2)Nc2ccccc21` (stereo not shown) [CBK284803], for which the viability at 28.5 h, 10 µM came to 104%.

As for `Cc1cccnc1C(Cc1ccsc1)NC(=O)CCc1ccno1` (stereo not shown) [CBK284804], the viability at 28.5 h, 10 µM is 86.7%.

On to `COc1cccc(-c2nccc3ccn(CC(=O)N4CC=CCC4)c23)c1` [CBK284806], for which the viability at 28.5 h, 10 µM amounted to 104%.

Regarding `O=C(NCCn1c(C(F)(F)F)cc(=O)c2cccc(F)c21)C1CC1` [CBK284807], the viability at 28.5 h, 10 µM amounted to 85.5%.
